# Data reported in USRE48461E1, “Modulation of androgen receptor expression” (Ionis Pharmaceuticals, Inc., priority 2012, dated 2021).
# Oligonucleotides are written 5' to 3', each unit as a sugar letter and its base; * is a phosphorothioate linkage, no mark a phosphodiester; rarer units and linkages stand in square brackets, end groups in braces. Plain capitals give the bases only. e = 2'-O-(2-methoxyethyl) (MOE); k = constrained ethyl (cEt); [5mC] = 5-methylcytosine; d = 2'-deoxy (DNA)
# Columns and labels:
# AR mRNA [1] = assay: AR mRNA in LnCaP cells by free uptake (hAR_LTS00943); type: cell-based, human; settings: 24 hrs
# Procedure: Cells were plated at a concentration of 4,000 cells/well in 96-well plates. ISIS oligonucleotides, specified in Table 68, were added individually at 0.02 μM, 0.10 μM, 0.50 μM, 2.50 μM, or 10.00 μM. After an incubation period of 24 hrs, mRNA levels were measured using primer probe set hAR_LTS00943.
# AR mRNA [2] = assay: Antisense inhibition of human AR in HuVEC cells, single concentration (electroporation, qRT-PCR RTS3559); type: cell-based; settings: ~24 h
# Summary of the method: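 HuVEC cells electroporated with antisense oligonucleotides at a single concentration. AR mRNA quantified by qRT-PCR using human primer-probe set RTS3559 and normalised to total RNA content by RIBOGREEN.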
# [3] = test system: prostate-specific antigen (PSA) mRNA; assay: PSA mRNA levels in LMR20 cells; type: cell-based, human; settings: LMR20 cells; for PSA mRNA levels (% baseline value) after treatment with DHT: DHT 10 nM 72 hrs; for PSA mRNA levels (% baseline value) after treatment with R1881: R1881 10 nM 72 hrs; for PSA mRNA levels (% baseline value) of cells without AR agonist treatment: no AR agonist
# Procedure: LMR20 cells were plated at 1,500 cells per well in phenol red-free medium with CSS. […] Results are presented in Tables 43-45 as mRNA levels expressed as a percentage of the baseline values. mRNA levels may be lowered or increased after treatment.
# AR mRNA [4] = assay: AR mRNA levels in LMR20 cells (with/without DHT or R1881); type: cell-based, human; settings: LMR20 cells; for AR mRNA levels (% baseline value) after treatment with DHT: DHT 10 nM 72 hrs; for AR mRNA levels (% baseline value) after treatment with R1881: R1881 10 nM 72 hrs; for AR mRNA levels (% baseline value) of cells without AR agonist treatment: no AR agonist
# Procedure: (§1) LMR20 cells were plated at 1,500 cells per well in phenol red-free medium with CSS.
# AR mRNA [5] = assay: Dose-dependent antisense inhibition of human AR in HuVEC cells (electroporation, qRT-PCR RTS3559, IC50); type: cell-based
# Summary of the method: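 HuVEC cells dosed with antisense oligonucleotides by electroporation and treated approximately 16 hours. AR mRNA quantified by real-time qPCR with primer probe set RTS3559 and normalised to total RNA by RIBOGREEN; IC50 from dose-response.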
# TMPRSS2 mRNA = TMPRSS2 mRNA levels in LMR20 cells; type: cell-based, human; settings: LMR20 cells; for TMPRSS2 mRNA levels (% baseline value) after treatment with DHT: DHT 10 nM 72 hrs; for TMPRSS2 mRNA levels (% baseline value) after treatment with R1881: R1881 10 nM 72 hrs; for TMPRSS2 mRNA levels (% baseline value) of cells without AR agonist treatment: no AR agonist
# Procedure: as §1
substance,measurement,setting,value
569236 (antisense eT*kG*kA*kT*dT*dT*dA*dA*dT*dG*dG*kT*kT*kG*e[5mC]*eA) [compound 569236],Percent inhibition of AR mRNA,AR mRNA [1]; 0.02 μM,3%
same,Percent inhibition of AR mRNA,AR mRNA [1]; 0.1 μM,2%
same,Percent inhibition of AR mRNA,AR mRNA [1]; 0.5 μM,21%
same,Percent inhibition of AR mRNA,AR mRNA [1]; 10 μM,70%
same,% inhibition,"AR mRNA [2]; 250 nM ASO, Table 7",66%
same,PSA mRNA levels (% baseline value) after treatment with DHT,[3]; ASO 0.04 μM,108 % baseline value
same,PSA mRNA levels (% baseline value) after treatment with DHT,[3]; ASO 0.20 μM,79 % baseline value
same,PSA mRNA levels (% baseline value) after treatment with DHT,[3]; ASO 1.0 μM,46 % baseline value
same,PSA mRNA levels (% baseline value) after treatment with DHT,[3]; ASO 5.0 μM,46 % baseline value
same,PSA mRNA levels (% baseline value) after treatment with R1881,[3]; ASO 0.04 μM,90 % baseline value
same,PSA mRNA levels (% baseline value) after treatment with R1881,[3]; ASO 0.20 μM,90 % baseline value
same,PSA mRNA levels (% baseline value) after treatment with R1881,[3]; ASO 1.0 μM,57 % baseline value
same,PSA mRNA levels (% baseline value) after treatment with R1881,[3]; ASO 5.0 μM,41 % baseline value
same,PSA mRNA levels (% baseline value) of cells without AR agonist treatment,[3]; ASO 0.04 μM,122 % baseline value
same,PSA mRNA levels (% baseline value) of cells without AR agonist treatment,[3]; ASO 0.20 μM,90 % baseline value
same,PSA mRNA levels (% baseline value) of cells without AR agonist treatment,[3]; ASO 1.0 μM,78 % baseline value
same,PSA mRNA levels (% baseline value) of cells without AR agonist treatment,[3]; ASO 5.0 μM,73 % baseline value
same,AR mRNA levels (% baseline value) after treatment with DHT,AR mRNA [4]; ASO 0.04 μM,94 % baseline value
same,AR mRNA levels (% baseline value) after treatment with DHT,AR mRNA [4]; ASO 0.20 μM,77 % baseline value
same,AR mRNA levels (% baseline value) after treatment with DHT,AR mRNA [4]; ASO 1.0 μM,44 % baseline value
same,AR mRNA levels (% baseline value) after treatment with DHT,AR mRNA [4]; ASO 5.0 μM,34 % baseline value
same,AR mRNA levels (% baseline value) after treatment with R1881,AR mRNA [4]; ASO 0.04 μM,89 % baseline value
same,AR mRNA levels (% baseline value) after treatment with R1881,AR mRNA [4]; ASO 0.20 μM,80 % baseline value
same,AR mRNA levels (% baseline value) after treatment with R1881,AR mRNA [4]; ASO 1.0 μM,44 % baseline value
same,AR mRNA levels (% baseline value) after treatment with R1881,AR mRNA [4]; ASO 5.0 μM,37 % baseline value
same,AR mRNA levels (% baseline value) of cells without AR agonist treatment,AR mRNA [4]; ASO 0.04 μM,104 % baseline value
same,AR mRNA levels (% baseline value) of cells without AR agonist treatment,AR mRNA [4]; ASO 0.20 μM,87 % baseline value
same,AR mRNA levels (% baseline value) of cells without AR agonist treatment,AR mRNA [4]; ASO 1.0 μM,42 % baseline value
same,AR mRNA levels (% baseline value) of cells without AR agonist treatment,AR mRNA [4]; ASO 5.0 μM,27 % baseline value
same,percent inhibition of AR,"AR mRNA [5]; 31.25 nM, HuVEC, ~16 h, Table 8",17%
same,percent inhibition of AR,"AR mRNA [5]; 62.5 nM, HuVEC, ~16 h, Table 8",39%
same,percent inhibition of AR,"AR mRNA [5]; 62.5 nM, HuVEC, ~16 h, Table 10",4%
same,percent inhibition of AR,"AR mRNA [5]; 125.0 nM, HuVEC, ~16 h, Table 8",54%
same,percent inhibition of AR,"AR mRNA [5]; 125.0 nM, HuVEC, ~16 h, Table 10",35%
same,percent inhibition of AR,"AR mRNA [5]; 500.0 nM, HuVEC, ~16 h, Table 8",84%
same,percent inhibition of AR,"AR mRNA [5]; 500.0 nM, HuVEC, ~16 h, Table 10",68%
same,percent inhibition of AR,"AR mRNA [5]; 1000.0 nM, HuVEC, ~16 h, Table 8",92%
same,percent inhibition of AR,"AR mRNA [5]; 1000.0 nM, HuVEC, ~16 h, Table 10",88%
same,IC50,"AR mRNA [5]; HuVEC, ~16 h, Table 8",110 nM
same,IC50,"AR mRNA [5]; HuVEC, ~16 h, Table 10",252 nM
same,TMPRSS2 mRNA levels (% baseline value) after treatment with DHT,TMPRSS2 mRNA; ASO 0.04 μM,113 % baseline value
same,TMPRSS2 mRNA levels (% baseline value) after treatment with DHT,TMPRSS2 mRNA; ASO 0.20 μM,123 % baseline value
same,TMPRSS2 mRNA levels (% baseline value) after treatment with DHT,TMPRSS2 mRNA; ASO 1.0 μM,111 % baseline value
same,TMPRSS2 mRNA levels (% baseline value) after treatment with DHT,TMPRSS2 mRNA; ASO 5.0 μM,110 % baseline value
same,TMPRSS2 mRNA levels (% baseline value) after treatment with R1881,TMPRSS2 mRNA; ASO 0.04 μM,126 % baseline value
same,TMPRSS2 mRNA levels (% baseline value) after treatment with R1881,TMPRSS2 mRNA; ASO 0.20 μM,131 % baseline value
same,TMPRSS2 mRNA levels (% baseline value) after treatment with R1881,TMPRSS2 mRNA; ASO 1.0 μM,98 % baseline value
same,TMPRSS2 mRNA levels (% baseline value) after treatment with R1881,TMPRSS2 mRNA; ASO 5.0 μM,95 % baseline value
same,TMPRSS2 mRNA levels (% baseline value) of cells without AR agonist treatment,TMPRSS2 mRNA; ASO 0.04 μM,96 % baseline value
same,TMPRSS2 mRNA levels (% baseline value) of cells without AR agonist treatment,TMPRSS2 mRNA; ASO 0.20 μM,81 % baseline value
same,TMPRSS2 mRNA levels (% baseline value) of cells without AR agonist treatment,TMPRSS2 mRNA; ASO 1.0 μM,59 % baseline value
same,TMPRSS2 mRNA levels (% baseline value) of cells without AR agonist treatment,TMPRSS2 mRNA; ASO 5.0 μM,48 % baseline value
586227 (kT*kG*kA*kT*kT*dT*dA*dA*dT*dG*dG*dT*dT*kG*k[5mC]*kA; antisense) [compound 586227],Percent inhibition of AR mRNA,AR mRNA [1]; 0.02 μM,0%
same,Percent inhibition of AR mRNA,AR mRNA [1]; 0.1 μM,0%
same,Percent inhibition of AR mRNA,AR mRNA [1]; 0.5 μM,14%
same,Percent inhibition of AR mRNA,AR mRNA [1]; 10 μM,59%
same,% inhibition,"AR mRNA [2]; 1,000 nM ASO, Table 13",87%
same,percent inhibition of AR,"AR mRNA [5]; 46.9 nM, HuVEC, ~16 h, Table 15",20%
same,percent inhibition of AR,"AR mRNA [5]; 187.5 nM, HuVEC, ~16 h, Table 15",60%
same,percent inhibition of AR,"AR mRNA [5]; 750.0 nM, HuVEC, ~16 h, Table 15",88%
same,percent inhibition of AR,"AR mRNA [5]; 3000.0 nM, HuVEC, ~16 h, Table 15",96%
same,IC50,"AR mRNA [5]; HuVEC cells, electroporation",130 nM
same,inhibition of AR mRNA at 46.9 nM,"AR mRNA [5]; HuVEC cells, electroporation, 46.9 nM ASO",20%
same,inhibition of AR mRNA at 187.5 nM,"AR mRNA [5]; HuVEC cells, electroporation, 187.5 nM ASO",60%
same,inhibition of AR mRNA at 750.0 nM,"AR mRNA [5]; HuVEC cells, electroporation, 750.0 nM ASO",88%
same,inhibition of AR mRNA at 3000.0 nM,"AR mRNA [5]; HuVEC cells, electroporation, 3000.0 nM ASO",96%
same,IC50,"AR mRNA [5]; HuVEC, ~16 h, Table 15",130 nM
